Data from patent US10428082B2, “Triazole derivatives of melampomagnolide B and methods of use thereof” (BioVentures, LLC, priority 2016, dated 2019).

Key:
M9 ENL1 cell line = assay: Anti-leukemic activity, Annexin V/7-AAD flow cytometry; format: cell-based; conditions: 24 h of drug exposure; read-out: M9ENL1 (EC50)
Procedure: The newly synthesized triazole derivatives of melampomagnolide B were screened for anti-leukemic activity against M9 ENL1 and primary AML cell lines; the latter were obtained with informed consent from human patients. Evaluations were performed after 24 h of drug exposure using flow cytometric analysis by labeling with Annexin V and 7-aminoactinomycin D (7-AAD) to delineate apoptotic cell populations. In all experiments PTL was included as a reference control.

786-0 = assay: NCI 60 growth inhibition; format: cell-based, human; conditions: 786-0, Renal Cancer, Table 3
Procedure: (§1) The above triazole derivatives of melampomagnolide B were evaluated for growth inhibitory properties against an NCI panel of 60 human cancer cell lines derived from nine human cancer cell types, grouped into disease sub-panels that represent leukemia, lung, colon, central nervous system (CNS), melanoma, renal, ovary, breast, and prostate cancer cells. Growth inhibitory (GI50) effects were measured as a function of the variation of optical density as a percentage of control.

CAKI-1 = assay: NCI 60 growth inhibition; format: cell-based, human; conditions: CAKI-1, Renal Cancer, Table 3
Procedure: as §1

CCRF-CEM = assay: NCI 60 growth inhibition; format: cell-based, human; conditions: Leukemia, Table 3
Procedure: as §1

COLO 205 = assay: NCI 60 growth inhibition; format: cell-based, human; conditions: COLO 205, Colon Cancer, Table 3
Procedure: as §1

DU-145 = assay: NCI 60 growth inhibition; format: cell-based, human; conditions: DU-145, Prostate Cancer, Table 3
Procedure: as §1

EKVX = assay: NCI 60 growth inhibition; format: cell-based, human; conditions: Non-Small Cell Lung Cancer, Table 3
Procedure: as §1

HCC-2998 = assay: NCI 60 growth inhibition; format: cell-based, human; conditions: HCC-2998, Colon Cancer, Table 3
Procedure: as §1

HCT-116 = assay: NCI 60 growth inhibition; format: cell-based, human; conditions: HCT-116, Colon Cancer, Table 3
Procedure: as §1

HL-60(TB) = assay: NCI 60 growth inhibition; format: cell-based, human; conditions: HL-60 (TB), Leukemia, Table 3
Procedure: as §1

HOP-62 = assay: NCI 60 growth inhibition; format: cell-based, human; conditions: HOP-62, Non-Small Cell Lung Cancer, Table 3
Procedure: as §1

HOP-92 = assay: NCI 60 growth inhibition; format: cell-based, human; conditions: HOP-92, Non-Small Cell Lung Cancer, Table 3
Procedure: as §1

HS 578T = assay: NCI 60 growth inhibition; format: cell-based, human; conditions: Breast Cancer, Table 3
Procedure: as §1

IGROV1 = assay: NCI 60 growth inhibition; format: cell-based, human; conditions: IGROV1, Ovarian Cancer, Table 3
Procedure: as §1

K-562 = assay: NCI 60 growth inhibition; format: cell-based, human; conditions: K-562, Leukemia, Table 3
Procedure: as §1

MALME-3M = assay: NCI 60 growth inhibition; format: cell-based, human; conditions: Melanoma, Table 3
Procedure: as §1

MDA-MB-231/ATCC = assay: NCI 60 growth inhibition; format: cell-based, human; conditions: Breast Cancer, Table 3
Procedure: as §1

MDA-MB-435 = assay: NCI 60 growth inhibition; format: cell-based, human; conditions: MDA-MB-435, Melanoma, Table 3
Procedure: as §1

MDA-MB-468 = assay: NCI 60 growth inhibition; format: cell-based, human; conditions: MDA-MB-468, Breast Cancer, Table 3
Procedure: as §1

MOLT-4 = assay: NCI 60 growth inhibition; format: cell-based, human; conditions: MOLT-4, Leukemia, Table 3
Procedure: as §1

NCI-H226 = assay: NCI 60 growth inhibition; format: cell-based, human; conditions: NCI-H226, Non-Small Cell Lung Cancer, Table 3
Procedure: as §1

NCI-H23 = assay: NCI 60 growth inhibition; format: cell-based, human; conditions: NCI-H23, Non-Small Cell Lung Cancer, Table 3
Procedure: as §1

NCI-H322M = assay: NCI 60 growth inhibition; format: cell-based, human; conditions: Non-Small Cell Lung Cancer, Table 3
Procedure: as §1

NCI-H460 = assay: NCI 60 growth inhibition; format: cell-based, human; conditions: NCI-H460, Non-Small Cell Lung Cancer, Table 3
Procedure: as §1

NCI/ADR-RES = assay: NCI 60 growth inhibition; format: cell-based, human; conditions: Ovarian Cancer, Table 3
Procedure: as §1

OVCAR-3 = assay: NCI 60 growth inhibition; format: cell-based, human; conditions: OVCAR-3, Ovarian Cancer, Table 3
Procedure: as §1

PC-3 = assay: NCI 60 growth inhibition; format: cell-based, human; conditions: PC-3, Prostate Cancer, Table 3
Procedure: as §1

RPMI-8226 = assay: NCI 60 growth inhibition; format: cell-based, human; conditions: RPMI-8226, Leukemia, Table 3
Procedure: as §1

RXF 393 = assay: NCI 60 growth inhibition; format: cell-based, human; conditions: RXF 393, Renal Cancer, Table 3
Procedure: as §1

SF-268 = assay: NCI 60 growth inhibition; format: cell-based, human; conditions: SF-268, CNS Cancer, Table 3
Procedure: as §1

SK-MEL-28 = assay: NCI 60 growth inhibition; format: cell-based, human; conditions: SK-MEL-28, Melanoma, Table 3
Procedure: as §1

SK-MEL-2 = assay: NCI 60 growth inhibition; format: cell-based, human; conditions: SK-MEL-2, Melanoma, Table 3
Procedure: as §1

SK-OV-3 = assay: NCI 60 growth inhibition; format: cell-based, human; conditions: SK-OV-3, Ovarian Cancer, Table 3
Procedure: as §1

SW-620 = assay: NCI 60 growth inhibition; format: cell-based, human; conditions: SW-620, Colon Cancer, Table 3
Procedure: as §1

T-47D = assay: NCI 60 growth inhibition; format: cell-based, human; conditions: Breast Cancer, Table 3
Procedure: as §1

How did the EC50 (M9 ENL1 cell line) turn out when `C=C1C(=O)O[C@H]2[C@H]1CC/C(Cn1cc(-c3ccc(N)cc3)nn1)=C\CC[C@@]1(C)O[C@@H]21` [JVM 4-58] was run?
The EC50 was 2 µM.

What about the GI50 (786-0) of the same compound?
The GI50 was 1.98 µM.

And the GI50 (CAKI-1)?
The GI50 was 1.77 µM.

And the GI50 (CCRF-CEM)?
The GI50 was 2 µM.

What about the GI50 (COLO 205) of the same compound?
Its GI50 is 1.79 µM.

What about the GI50 (DU-145) of the same compound?
The GI50 was 3.65 µM.

And the GI50 (EKVX)?
The GI50 was 3.89 µM.

And the GI50 (HCC-2998)?
Its GI50 is 3.49 µM.

What about the GI50 (HCT-116) of the same compound?
The GI50 was 1.55 µM.

What about the GI50 (HL-60(TB)) of the same compound?
Its GI50 is 2.23 µM.

What about the GI50 (HOP-62) of the same compound?
The GI50 was 10.2 µM.

And the GI50 (HOP-92)?
Its GI50 is 2.13 µM.

What about the GI50 (HS 578T) of the same compound?
Its GI50 is 4.46 µM.

And the GI50 (IGROV1)?
The GI50 was 2.96 µM.

What about the GI50 (K-562) of the same compound?
The GI50 was 2.99 µM.

What about the GI50 (MALME-3M) of the same compound?
Its GI50 is 2.18 µM.

What about the GI50 (MDA-MB-231/ATCC) of the same compound?
The GI50 was 3.45 µM.

And the GI50 (MDA-MB-435)?
Its GI50 is 3.01 µM.

What about the GI50 (MDA-MB-468) of the same compound?
Its GI50 is 1.77 µM.

What about the GI50 (MOLT-4) of the same compound?
The GI50 was 2.87 µM.

And the GI50 (NCI-H226)?
Its GI50 is 3.34 µM.

And the GI50 (NCI-H23)?
Its GI50 is 2.49 µM.

And the GI50 (NCI-H322M)?
The GI50 was 12.6 µM.

And the GI50 (NCI-H460)?
Its GI50 is 10.4 µM.

And the GI50 (NCI/ADR-RES)?
The GI50 was 14.5 µM.

What about the GI50 (OVCAR-3) of the same compound?
Its GI50 is 1.62 µM.

What about the GI50 (PC-3) of the same compound?
Its GI50 is 10.1 µM.

What about the GI50 (RPMI-8226) of the same compound?
Its GI50 is 2.75 µM.

And the GI50 (RXF 393)?
The GI50 was 1.41 µM.

And the GI50 (SF-268)?
The GI50 was 3.7 µM.

And the GI50 (SK-MEL-28)?
Its GI50 is 2.71 µM.

What about the GI50 (SK-MEL-2) of the same compound?
The GI50 was 10.6 µM.

And the GI50 (SK-OV-3)?
The GI50 was 18.3 µM.

And the GI50 (SW-620)?
Its GI50 is 2.16 µM.

And the GI50 (T-47D)?
The GI50 was 2.23 µM.
